Test systems include UACC-62 melanoma; UACC-257 melanoma; HCT-15 colon; NCI-H522 lung; KM12 colon; NCI-H460 lung; SR leukemia; 786-0 renal; SW-620 colon; HT29 colon; DLD-1 colon; KM20L2 colon; HOP-92 NSCLC.
Holding throughout (assay): growth of human tumour cells (NCI), 48 h

Structures are written as SMILES.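 Values below derive from 48-hour exposures of cells grown in 96-well plates, with endpoints linearly interpolated between the two concentrations bracketing the appropriate inhibition level. At the TGI there is no net growth.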 Where a SMILES comes first, the peptide text is derived from it. Bridges are numbered along the chain shown (N, C = ends). The star is where a group is joined. Cbz = O=C(OCc1ccccc1)*

As to `CCCCc1c2c(nc3c1CCc1cc4cc5c(nc4nc1-3)-c1nc3c(c(CCCC)c1CC5)CCC/C3=C\c1ccccc1)/C(=C/c1ccccc1)CCC2`, the TGI in the test on UACC-62 melanoma, in the test on UACC-257 melanoma, with HCT-15 colon, with NCI-H522 lung, in the test with KM12 colon and in the test on NCI-H460 lung was over 100 µM in each case. Besides, the TGI in the test with SR leukemia, in the test on 786-0 renal, with SW-620 colon, in the test with HT29 colon, in the test on DLD-1 colon and with KM20L2 colon was over 100 µM throughout.

In the case of `Cc1occ2c1C(=O)CC1C2[C@@H](O)CC2C(C)(C)CCC[C@]12C` (stereo not given in full), the TGI in the test on UACC-62 melanoma, in the test on UACC-257 melanoma, in the test on HCT-15 colon, with NCI-H522 lung, with SR leukemia and in the test on 786-0 renal was over 100 µM each time. The TGI in the test with HOP-92 NSCLC, with SW-620 colon, in the test on HT29 colon, with DLD-1 colon and with KM20L2 colon was over 100 µM each time.

As to `CC(=O)Nc1ccc(C(=O)N2N=C(C)/C(=C/c3cccc([N+](=O)[O-])c3)C2=O)cc1`, the TGI with UACC-257 melanoma, in the test on NCI-H522 lung, with KM12 colon, with NCI-H460 lung, in the test on SR leukemia and with 786-0 renal was over 100 µM throughout. Moreover, the TGI in the test with SW-620 colon, with HT29 colon and in the test on DLD-1 colon was over 100 µM each time.

As for `O=C(COc1ccc(Cl)cc1)N1CCN(C(=O)COc2ccc(Cl)cc2)c2ccccc21`, the TGI in the test with UACC-257 melanoma, with NCI-H522 lung, with KM12 colon, in the test with NCI-H460 lung, in the test on 786-0 renal and in the test with HOP-92 NSCLC was over 100 µM throughout. Also, the TGI in the test with SW-620 colon, in the test on HT29 colon, in the test with DLD-1 colon and in the test on KM20L2 colon was over 100 µM throughout.

Turning to `Nc1ccc(C(=O)NN2C(=O)C(Cl)C2c2cccc(O)c2)cc1` (stereo not given), the TGI with UACC-62 melanoma amounted to 32 µM; with UACC-257 melanoma, 41.7 µM; with HCT-15 colon, 25.3 µM; in the test on NCI-H522 lung, 3.29 µM; with KM12 colon it was 22.5 µM; in the test with NCI-H460 lung it was 29.7 µM. For the same compound, the TGI amounted to 29.5 µM with 786-0 renal; 35.4 µM with HOP-92 NSCLC; 36.6 µM with SW-620 colon; 35.2 µM with HT29 colon; 28.4 µM in the test on DLD-1 colon; 31.8 µM with KM20L2 colon.

For the compound `C=CCC1(CC)C(=O)NC(=O)NC1=O`, the TGI in the test on UACC-62 melanoma, in the test with UACC-257 melanoma, in the test with HCT-15 colon, in the test with NCI-H522 lung, with KM12 colon and in the test on NCI-H460 lung was over 100 µM throughout. The TGI with SR leukemia, in the test on 786-0 renal, in the test with SW-620 colon and with KM20L2 colon was over 100 µM in each case.

Consider `CC1=NN(C(=O)c2ccc(Cl)cc2)C(=O)/C1=C/c1ccc(Cl)cc1`, for which the TGI in the test on UACC-62 melanoma, with UACC-257 melanoma, with NCI-H522 lung, in the test with KM12 colon, in the test on NCI-H460 lung and in the test with 786-0 renal was over 100 µM throughout. Besides, the TGI in the test with HOP-92 NSCLC, in the test with SW-620 colon, with HT29 colon, in the test on DLD-1 colon and in the test on KM20L2 colon was over 100 µM throughout.

As for `CCOC(=O)c1c(NCc2ccccc2)n(-c2ccccc2)c(=S)n(-c2ccccc2)c1=O`, the TGI with UACC-62 melanoma, in the test with UACC-257 melanoma, in the test on HCT-15 colon, in the test on NCI-H522 lung, in the test with KM12 colon and with NCI-H460 lung was over 100 µM throughout. Moreover, the TGI with SR leukemia, with 786-0 renal, with HOP-92 NSCLC, in the test with SW-620 colon and with HT29 colon was over 100 µM throughout.

For the compound `CC1(C)CCCCCCCCCC(C)(CCCCCCCCCCCCO)C1=O` (stereo not given), the TGI is 33.7 µM in the test on UACC-62 melanoma; 29.9 µM in the test with UACC-257 melanoma; 55 µM with HCT-15 colon; 30.3 µM in the test with NCI-H522 lung; 31.1 µM in the test with KM12 colon; 33.4 µM in the test on NCI-H460 lung. Besides, the TGI with SR leukemia is over 100 µM; with 786-0 renal, 32.6 µM; with HOP-92 NSCLC, 31.7 µM; in the test on SW-620 colon it was 32.5 µM; with HT29 colon, 31 µM.

Turning to `O=c1[nH]cnc2sc(=S)c3c(c12)CCC3`, the TGI was over 100 µM in the test with UACC-62 melanoma; 94 µM with UACC-257 melanoma; 91.4 µM with HCT-15 colon; 41.8 µM in the test on NCI-H522 lung; over 100 µM with KM12 colon; over 100 µM in the test with NCI-H460 lung. The TGI with SR leukemia is 35.5 µM; with 786-0 renal, 33.3 µM; in the test on HOP-92 NSCLC, 66.3 µM; in the test with SW-620 colon, 49.2 µM; in the test with HT29 colon it was over 100 µM.

For `O=c1[nH]c2cc3cccnc3c(Cl)c2nc1CBr`, the TGI in the test with UACC-62 melanoma turned out to be 25.2 µM; in the test on UACC-257 melanoma it was 54.9 µM; in the test on HCT-15 colon it was 9.94 µM; in the test with NCI-H522 lung, 28.5 µM; in the test with KM12 colon, 33.3 µM; in the test with NCI-H460 lung, 39.7 µM. Besides, the TGI with SR leukemia is 73.3 µM; with 786-0 renal, 25.2 µM; in the test on HOP-92 NSCLC, 35.2 µM; in the test with SW-620 colon it was 32.5 µM; with HT29 colon, 35.9 µM.

On to `COC(=O)C1CCCCNC(=O)CCC(NC(=O)OCc2ccccc2)C(=O)N1` (stereo not drawn) (Cbz-Glu-Lys-OMe; lactam 1-2; configuration not given here), for which the TGI in the test with UACC-62 melanoma, with UACC-257 melanoma, in the test with HCT-15 colon, in the test with NCI-H522 lung, in the test with KM12 colon and in the test with NCI-H460 lung was over 100 µM each time. The TGI is over 100 µM in the test on SR leukemia; over 100 µM in the test with 786-0 renal; 95.1 µM with HOP-92 NSCLC; over 100 µM with SW-620 colon; over 100 µM in the test on HT29 colon.

Source of the values: PubChem BioAssay (NCI).
